Data: PubChem BioAssay AID1963979 (Molecular Pharmacology Branch, DTP, NCI, 2024)

Tested on: 361931-004-R-J1-PDC multicell spheroid viability
Experiment: Anticancer human tumor 361931-004-R-J1-PDC patient-derived colon adenocarcinoma cell line growth inhibition [PI3K]
Details: for viability, T/C: stronger effect = lower value
Procedure, shortened: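 Tumor cells were combined with HUVEC and MSCs into spheroids, then dosed with PI3K-inhibitor combinations over half-log ranges capped near clinical Cmax or 10 microM.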

[1] = curve of first compound, second compound 0.00316 µM
[2] = curve of first compound, second compound 0.01 µM
[3] = curve of first compound, second compound 0.0316 µM
[4] = curve of first compound, second compound 0.1 µM
[5] = curve of first compound, second compound 0.316 µM
[6] = curve of first compound, second compound 1 µM
[7] = second compound 0.00316 µM, first compound 0.0316 µM
[8] = second compound 0.00316 µM, first compound 0.1 µM
[9] = second compound 0.00316 µM, first compound 0.316 µM
[10] = second compound 0.00316 µM, first compound 1 µM
[11] = second compound 0.00316 µM, first compound 3.16 µM
[12] = second compound 0.00316 µM, first compound 10 µM
[13] = second compound 0.01 µM, first compound 0.0316 µM
[14] = second compound 0.01 µM, first compound 0.1 µM
[15] = second compound 0.01 µM, first compound 0.316 µM
[16] = second compound 0.01 µM, first compound 1 µM
[17] = second compound 0.01 µM, first compound 3.16 µM
[18] = second compound 0.01 µM, first compound 10 µM
[19] = second compound 0.0316 µM, first compound 0.0316 µM
[20] = second compound 0.0316 µM, first compound 0.1 µM
[21] = second compound 0.0316 µM, first compound 0.316 µM
[22] = second compound 0.0316 µM, first compound 1 µM
[23] = second compound 0.0316 µM, first compound 3.16 µM
[24] = second compound 0.0316 µM, first compound 10 µM
[25] = second compound 0.1 µM, first compound 0.0316 µM
[26] = second compound 0.1 µM, first compound 0.1 µM
[27] = second compound 0.1 µM, first compound 0.316 µM
[28] = second compound 0.1 µM, first compound 1 µM
[29] = second compound 0.1 µM, first compound 3.16 µM
[30] = second compound 0.1 µM, first compound 10 µM
[31] = second compound 0.316 µM, first compound 0.0316 µM
[32] = second compound 0.316 µM, first compound 0.1 µM
[33] = second compound 0.316 µM, first compound 0.316 µM
[34] = second compound 0.316 µM, first compound 1 µM
[35] = second compound 0.316 µM, first compound 3.16 µM
[36] = second compound 0.316 µM, first compound 10 µM
[37] = second compound 1 µM, first compound 0.0316 µM
[38] = second compound 1 µM, first compound 0.1 µM
[39] = second compound 1 µM, first compound 0.316 µM
[40] = second compound 1 µM, first compound 1 µM
[41] = second compound 1 µM, first compound 3.16 µM
[42] = second compound 1 µM, first compound 10 µM
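Further: spheroids exposed to agents for seven days before readout.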

## CNC(=O)c1ccc(N2C(=S)N(c3ccc(C#N)c(C(F)(F)F)c3)C(=O)C2(C)C)cc1F + CC(Nc1ccc2c(c1)OCCn1cc(N3C(=O)OCC3C(F)F)nc1-2)C(N)=O
[1]
  IC50: > 10 µM
[2]
  IC50: > 10 µM
[3]
  IC50: > 10 µM
[4]
  IC50: > 10 µM
[5]
  IC50: > 10 µM
[6]
  IC50: > 10 µM
[7]
  viability, T/C: 110%
[8]
  viability, T/C: 101%
[9]
  viability, T/C: 101%
[10]
  viability, T/C: 92.8%
[11]
  viability, T/C: 110%
[12]
  viability, T/C: 93.7%
[13]
  viability, T/C: 109%
[14]
  viability, T/C: 102%
[15]
  viability, T/C: 85.2%
[16]
  viability, T/C: 104%
[17]
  viability, T/C: 103%
[18]
  viability, T/C: 90.4%
[19]
  viability, T/C: 107%
[20]
  viability, T/C: 103%
[21]
  viability, T/C: 105%
[22]
  viability, T/C: 102%
[23]
  viability, T/C: 105%
[24]
  viability, T/C: 82.4%
[25]
  viability, T/C: 94.6%
[26]
  viability, T/C: 99.1%
[27]
  viability, T/C: 93.1%
[28]
  viability, T/C: 100%
[29]
  viability, T/C: 97.4%
[30]
  viability, T/C: 86.4%
[31]
  viability, T/C: 88.1%
[32]
  viability, T/C: 94%
[33]
  viability, T/C: 88.6%
[34]
  viability, T/C: 87.9%
[35]
  viability, T/C: 87.5%
[36]
  viability, T/C: 76%
[37]
  viability, T/C: 75.9%
[38]
  viability, T/C: 82.1%
[39]
  viability, T/C: 79.3%
[40]
  viability, T/C: 78%
[41]
  viability, T/C: 76.1%
[42]
  viability, T/C: 79.6%

## C#Cc1c(F)ccc2cc(O)cc(-c3ncc4c(N5CC6CCC(C5)N6)nc(OCC56CCCN5CC(F)C6)nc4c3F)c12 (configuration not stated)
Compound 0.0316 µM
  viability, T/C: 104% [middle of 4 runs]
Compound 0.1 µM
  viability, T/C: 106% [middle of 4 runs]
Compound 0.316 µM
  viability, T/C: 100% [middle of 4 runs]
Compound 1 µM
  viability, T/C: 104% [middle of 4 runs]
Compound 3.16 µM
  viability, T/C: 96.7% [middle of 4 runs]
Curve of compound
  IC50: > 10 µM

## C#Cc1c(F)ccc2cc(O)cc(-c3ncc4c(N5CC6CCC(C5)N6)nc(OCC56CCCN5CC(F)C6)nc4c3F)c12 (configuration not stated) + COc1c(OCCCN2CCOCC2)ccc2c3n(c(=NC(=O)c4cnc(N)nc4)nc12)CCN3
[1]
  IC50: > 10 µM
[2]
  IC50: > 10 µM
[3]
  IC50: > 10 µM
[4]
  IC50: 5.65 µM
[5]
  IC50: 0.101 µM
[6]
  IC50: < 0.0316 µM
[7]
  viability, T/C: 105%
[8]
  viability, T/C: 108%
[9]
  viability, T/C: 98.1%
[10]
  viability, T/C: 91.9%
[11]
  viability, T/C: 101%
[12]
  viability, T/C: 84.9%
[13]
  viability, T/C: 107%
[14]
  viability, T/C: 106%
[15]
  viability, T/C: 99.1%
[16]
  viability, T/C: 91%
[17]
  viability, T/C: 88.8%
[18]
  viability, T/C: 73%
[19]
  viability, T/C: 91.5%
[20]
  viability, T/C: 96.2%
[21]
  viability, T/C: 85.9%
[22]
  viability, T/C: 72.5%
[23]
  viability, T/C: 67.2%
[24]
  viability, T/C: 51.5%
[25]
  viability, T/C: 80.6%
[26]
  viability, T/C: 69.9%
[27]
  viability, T/C: 68.5%
[28]
  viability, T/C: 61.8%
[29]
  viability, T/C: 54.6%
[30]
  viability, T/C: 45.7%
[31]
  viability, T/C: 54.5%
[32]
  viability, T/C: 51.9%
[33]
  viability, T/C: 42.3%
[34]
  viability, T/C: 37.3%
[35]
  viability, T/C: 33.6%
[36]
  viability, T/C: 23%
[37]
  viability, T/C: 18.4%
[38]
  viability, T/C: 17.6%
[39]
  viability, T/C: 14.9%
[40]
  viability, T/C: 12.1%
[41]
  viability, T/C: 9.63%
[42]
  viability, T/C: 8.02%

## C[C@@H](NC(=O)c1ncnc(N)c1Cl)c1ncc(C(=O)Nc2cc(C(F)(F)F)c(Cl)cn2)s1 + COc1c(OCCCN2CCOCC2)ccc2c3n(c(=NC(=O)c4cnc(N)nc4)nc12)CCN3
[1]
  IC50: > 10 µM
[2]
  IC50: > 10 µM
[3]
  IC50: > 10 µM
[4]
  IC50: 5.01 µM
[5]
  IC50: 0.213 µM
[6]
  IC50: < 0.0316 µM
[7]
  viability, T/C: 108%
[8]
  viability, T/C: 101%
[9]
  viability, T/C: 108%
[10]
  viability, T/C: 102%
[11]
  viability, T/C: 109%
[12]
  viability, T/C: 89.2%
[13]
  viability, T/C: 110%
[14]
  viability, T/C: 99.9%
[15]
  viability, T/C: 105%
[16]
  viability, T/C: 98%
[17]
  viability, T/C: 98.4%
[18]
  viability, T/C: 89%
[19]
  viability, T/C: 98.6%
[20]
  viability, T/C: 100%
[21]
  viability, T/C: 96.6%
[22]
  viability, T/C: 87.7%
[23]
  viability, T/C: 89.2%
[24]
  viability, T/C: 71.2%
[25]
  viability, T/C: 85.9%
[26]
  viability, T/C: 86.1%
[27]
  viability, T/C: 91.1%
[28]
  viability, T/C: 71.3%
[29]
  viability, T/C: 64.5%
[30]
  viability, T/C: 31%
[31]
  viability, T/C: 58%
[32]
  viability, T/C: 54.3%
[33]
  viability, T/C: 46.5%
[34]
  viability, T/C: 39.9%
[35]
  viability, T/C: 25.7%
[36]
  viability, T/C: 7.73%
[37]
  viability, T/C: 26.1%
[38]
  viability, T/C: 25.8%
[39]
  viability, T/C: 17.7%
[40]
  viability, T/C: 11.8%
[41]
  viability, T/C: 8.36%
[42]
  viability, T/C: 1.75%
